The results in this text go back to patent US9499565B2 (BEIJING XINTIANYU TECHNOLOGY DEVELOPMENT CO., LTD., priority 2012, dated 2016).

This data set in a line: Long-period stability test of powder injections. Format: physicochemical. The settings on record: placed at room temperature for 28 months. How it is done:
All contents and purities in the present invention are determined using high performance liquid chromatography (HPLC), and chromatography conditions are: filler: octadecylsilane chemically bonded silica; mobile phase: 0.005 mol/L tetrabutyl ammonium hydroxide-acetonitrile (70:30) with pH of 5.0 adjusted by acetic acid; flow rate: 1.5 mL per minute; detection wavelength: 230 nm. The number of theoretical plates should not be less than 3500, as calculated according to sulbactam peak, the separation degree of […] peak and sulbactam peak should meet the requirements, and before official HPLC determination, the precision, accuracy, linearity and range of each specific to-be-quantified substance are also required to be subjected to methodology validation.

“cocrystal of piperacillin sodium and sulbactam sodium [cocrystal A]”: the “content of piperacillin sodium” value was “higher than 96.5%”, the “content of sulbactam sodium” value is given as “higher than 96.5%” and the “total content of related substances” value is listed as not above 2%.
